Experiments:
[1] = test system: Rattus norvegicus; assay: Distribution of radioactivity was determined in lung at 30 min after intravenous administration of [125I]-labeled 2-oleoglycerol 1,3-Bis-[omega-(3-amino-2,4,6-triiodophenyl)alkanoates] in rats; format: ADME, organism-based; details: in vivo, 0.5 h
[2] = test system: Rattus norvegicus; assay: Distribution of radioactivity was determined in liver at 30 min after intravenous administration of [125I]-labeled 2-oleoglycerol 1,3-Bis-[omega-(3-amino-2,4,6-triiodophenyl)alkanoates] in rats; format: ADME, organism-based; details: in vivo, 0.5 h
[3] = test system: Rattus norvegicus; assay: Polyacrylamide Gel Electrophoresis (PAGE) to determined the concentration of low density lipoprotein (LDL) in rats after iv administration of [125I]-labeled 2-Oleolyl 1,3-disubstituted triglycerols was reported; format: ADME, organism-based; details: in vivo
[4] = test system: Rattus norvegicus; assay: Distribution of radioactivity was determined in blood at 30 min after intravenous administration of 1,3-Disubstituted Triacylglycerols in rats; format: ADME, organism-based; details: in vivo, 0.5 h
[5] = test system: Rattus norvegicus; assay: Distribution of radioactivity was determined in heart at 3h after intravenous administration of [125I]-labeled 2-oleoglycerol 1,3-Bis-[omega-(3-amino-2,4,6-triiodophenyl)alkanoates] in rats; format: ADME, organism-based; details: in vivo
[6] = test system: Rattus norvegicus; assay: Distribution of radioactivity was determined in plasma at 30 min after intravenous administration of [125I]-labeled 2-oleoglycerol 1,3-Bis-[omega-(3-amino-2,4,6-triiodophenyl)alkanoates] in rats; format: ADME, organism-based; details: in vivo, 0.5 h
[7] = test system: Rattus norvegicus; assay: Distribution of radioactivity was determined in thyroid at 3h after intravenous administration of [125I]-labeled 2-oleoglycerol 1,3-Bis-[omega-(3-amino-2,4,6-triiodophenyl)alkanoates] in rats; format: ADME, organism-based, Thyroid gland; details: in vivo
[8] = test system: Rattus norvegicus; assay: Analysis of lipid-soluble radioactivity in plasma 0.5 hour after iv administration of [125I]-labeled 2-Oleoyl 1,3-disubstituted Triacylglycerols and represented as % CHCl3/CH3OH from rat; format: ADME, organism-based; details: in vivo
[9] = test system: Rattus norvegicus; assay: Distribution of radioactivity was determined in blood at 48 hr after intravenous administration of 1,3-Disubstituted Triacylglycerols in rats; format: ADME, organism-based; details: in vivo
[10] = test system: Rattus norvegicus; assay: Distribution of radioactivity was determined in liver at 24 hr after intravenous administration of [125I]-labeled 2-oleoglycerol 1,3-Bis-[omega-(3-amino-2,4,6-triiodophenyl)alkanoates] in rats; format: ADME, organism-based; details: in vivo
[11] = test system: Rattus norvegicus; assay: Distribution of radioactivity was determined in blood at 3h after intravenous administration of [125I]-labeled 2-oleoglycerol 1,3-Bis-[omega-(3-amino-2,4,6-triiodophenyl)alkanoates] in rats; format: ADME, organism-based; details: in vivo
[12] = test system: Rattus norvegicus; assay: Distribution of radioactivity was determined in spleen at 24 hr after intravenous administration of [125I]-labeled 2-oleoglycerol 1,3-Bis-[omega-(3-amino-2,4,6-triiodophenyl)alkanoates] in rats; format: ADME, organism-based; details: in vivo
[13] = test system: Rattus norvegicus; assay: Distribution of radioactivity was determined in kidney at 30 min after intravenous administration of [125I]-labeled 2-oleoglycerol 1,3-Bis-[omega-(3-amino-2,4,6-triiodophenyl)alkanoates] in rats; format: ADME, organism-based; details: in vivo, 0.5 h
[14] = test system: Rattus norvegicus; assay: Distribution of radioactivity was determined in liver at 3h after intravenous administration of 1,3-Disubstituted Triacylglycerols in rats; format: ADME, organism-based; details: in vivo
[15] = test system: Rattus norvegicus; assay: Analysis of lipid-soluble radioactivity in liver 24 hour after iv administration of [125I]-labeled 2-Oleoyl 1,3-disubstituted Triacylglycerols expressed as %parent compound (by TLC with authentic [125I]-labeled standard) from rat; format: ADME, organism-based; details: in vivo
[16] = test system: Rattus norvegicus; assay: Polyacrylamide Gel Electrophoresis (PAGE) to determined the concentration of albumin(ALB) in rats after iv administration of [125I]-labeled 2-Oleolyl 1,3-disubstituted triglycerols was reported; format: ADME, organism-based; details: in vivo
[17] = test system: Rattus norvegicus; assay: Polyacrylamide Gel Electrophoresis (PAGE) to determined the concentration of below albumin(BA) in rats after iv administration of [125I]-labeled 2-Oleolyl 1,3-disubstituted triglycerols was reported; format: ADME, organism-based; details: in vivo
[18] = test system: Rattus norvegicus; assay: Analysis of lipid-soluble radioactivity in liver 0.5 hour after iv administration of [125I]-labeled 2-Oleoyl 1,3-disubstituted Triacylglycerols expressed as %parent compound (by TLC with authentic [125I]-labeled standard) from rat; format: ADME, organism-based; details: in vivo
[19] = test system: Rattus norvegicus; assay: Distribution of radioactivity was determined in liver at 30 min after intravenous administration of 1,3-Disubstituted Triacylglycerols in rats; format: ADME, organism-based; details: in vivo, 0.5 h
[20] = test system: Rattus norvegicus; assay: Polyacrylamide Gel Electrophoresis (PAGE) to determined the concentration of high density lipoprotein (HDL) in rats after iv administration of [125I]-labeled 2-Oleolyl 1,3-disubstituted triglycerols was reported; format: ADME, organism-based; details: in vivo
[21] = test system: Rattus norvegicus; assay: Distribution of radioactivity was determined in lung at 3h after intravenous administration of [125I]-labeled 2-oleoglycerol 1,3-Bis-[omega-(3-amino-2,4,6-triiodophenyl)alkanoates] in rats; format: ADME, organism-based; details: in vivo
[22] = test system: Rattus norvegicus; assay: Distribution of radioactivity was determined in blood at 30 min after intravenous administration of [125I]-labeled 2-oleoglycerol 1,3-Bis-[omega-(3-amino-2,4,6-triiodophenyl)alkanoates] in rats; format: ADME, organism-based; details: in vivo, 0.5 h
[23] = test system: Rattus norvegicus; assay: Distribution of radioactivity was determined in blood at 24 hr after intravenous administration of [125I]-labeled 2-oleoglycerol 1,3-Bis-[omega-(3-amino-2,4,6-triiodophenyl)alkanoates] in rats; format: ADME, organism-based; details: in vivo
[24] = test system: Rattus norvegicus; assay: Analysis of lipid-soluble radioactivity in plasma 0.5 hour after iv administration of [125I]-labeled 2-Oleoyl 1,3-disubstituted Triacylglycerols expressed as %parent compound (by TLC with authentic [125I]-labeled standard) from rat; format: ADME, organism-based; details: in vivo
[25] = test system: Rattus norvegicus; assay: Distribution of radioactivity was determined in blood at 24 hr after intravenous administration of 1,3-Disubstituted Triacylglycerols in rats; format: ADME, organism-based; details: in vivo
[26] = test system: Rattus norvegicus; assay: Distribution of radioactivity was determined in lung at 24 hr after intravenous administration of [125I]-labeled 2-oleoglycerol 1,3-Bis-[omega-(3-amino-2,4,6-triiodophenyl)alkanoates] in rats; format: ADME, organism-based; details: in vivo
[27] = test system: Rattus norvegicus; assay: Distribution of radioactivity was determined in plasma at 3h after intravenous administration of [125I]-labeled 2-oleoglycerol 1,3-Bis-[omega-(3-amino-2,4,6-triiodophenyl)alkanoates] in rats; format: ADME, organism-based; details: in vivo
[28] = test system: Rattus norvegicus; assay: Distribution of radioactivity was determined in thyroid at 30 min after intravenous administration of [125I]-labeled 2-oleoglycerol 1,3-Bis-[omega-(3-amino-2,4,6-triiodophenyl)alkanoates] in rats; format: ADME, organism-based, Thyroid gland; details: in vivo, 0.5 h
[29] = test system: Rattus norvegicus; assay: Distribution of radioactivity was determined in liver at 48 hr after intravenous administration of 1,3-Disubstituted Triacylglycerols in rats; format: ADME, organism-based; details: in vivo
[30] = test system: Rattus norvegicus; assay: Distribution of radioactivity was determined in spleen at 3h after intravenous administration of 1,3-Disubstituted Triacylglycerols in rats; format: ADME, organism-based; details: in vivo
[31] = test system: Rattus norvegicus; assay: Distribution of radioactivity was determined in spleen at 30 min after intravenous administration of [125I]-labeled 2-oleoglycerol 1,3-Bis-[omega-(3-amino-2,4,6-triiodophenyl)alkanoates] in rats; format: ADME, organism-based; details: in vivo, 0.5 h
[32] = test system: Rattus norvegicus; assay: Distribution of radioactivity was determined in liver at 24 hr after intravenous administration of 1,3-Disubstituted Triacylglycerols in rats; format: ADME, organism-based; details: in vivo
[33] = test system: Rattus norvegicus; assay: Analysis of lipid-soluble radioactivity in plasma 24 hour after iv administration of [125I]-labeled 2-Oleoyl 1,3-disubstituted Triacylglycerols and represented as % CHCl3/CH3OH from rat; format: ADME, organism-based; details: in vivo
[34] = test system: Rattus norvegicus; assay: Distribution of radioactivity was determined in thyroid at 24 hr after intravenous administration of [125I]-labeled 2-oleoglycerol 1,3-Bis-[omega-(3-amino-2,4,6-triiodophenyl)alkanoates] in rats; format: ADME, organism-based, Thyroid gland; details: in vivo

Row | Distribution of radioactivity [1] | Distribution of radioactivity [2] | Radioactivity [3] | Distribution of radioactivity [4] | Distribution of radioactivity [5] | Distribution of radioactivity [6] | Distribution of radioactivity [7] | Lipid-soluble radioactivity [8] | Distribution of radioactivity [9] | Distribution of radioactivity [10] | Distribution of radioactivity [11] | Distribution of radioactivity [12] | Distribution of radioactivity [13] | Distribution of radioactivity [14] | Lipid-soluble radioactivity [15] | Radioactivity [16] | Radioactivity [17] | Lipid-soluble radioactivity [18] | Radioactivity per organ [19] | Radioactivity [20] | SMILES | also measured
1 | 0.54 % dose/g | 7.37 % dose/g | 8.1% | 0.9 % dose/organ | 0.09 % dose/g | 0.1 % dose/g | 1.16 % dose/g | 77.4 | 0.7 % dose per organ | 4.53 % dose/g | 0.08 % dose/g | 13.7 % dose/g | 0.05 % dose/g | 60.7 % dose/organ | 86.5 | 20.7% | 0.1% | 98.9 | 65.1 % dose/organ | 5.5% | CCCCCCCC/C=C/CCCCCCCC(=O)OC(COC(=O)CCCCc1c(I)cc(I)c(N)c1I)COC(=O)CCCCc1c(I)cc(I)c(N)c1I | Distribution of radioactivity [21]: 0.46 % dose/g; Distribution of radioactivity [22]: 0.08 % dose/g; Distribution of radioactivity [23]: 0.14 % dose/g; Lipid-soluble radioactivity [24]: 42.3; Distribution of radioactivity [25]: 1.4 % dose/organ; Distribution of radioactivity [26]: 0.59 % dose/g; Distribution of radioactivity [27]: 0.09 % dose/g; Distribution of radioactivity [28]: 0.54 % dose/g; Distribution of radioactivity [29]: 26.8 % dose/organ; Distribution of radioactivity [30]: 8 % dose/organ; Distribution of radioactivity [31]: 17.9 % dose/g; Distribution of radioactivity [32]: 36.1 % dose/organ; Lipid-soluble radioactivity [33]: 54.5; Distribution of radioactivity [34]: 6.74 % dose/g
2 | 0.66 % dose/g | 7.23 % dose/g | 0.2% | 6.6 % dose/organ | 0.22 % dose/g | 0.83 % dose/g | 1.69 % dose/g | 36.1 | 0.4 % dose per organ | 1.1 % dose/g | 0.28 % dose/g | 1.43 % dose/g | 0.2 % dose/g | 45.8 % dose/organ | 0 | 66.3% | 5.1% | 91.9 | 67.7 % dose/organ | 0.3% | CCCCCCCC/C=C/CCCCCCCC(=O)OC(COC(=O)CCCCCCc1c(I)cc(I)c(N)c1I)COC(=O)CCCCCCc1c(I)cc(I)c(N)c1I | Distribution of radioactivity [21]: 0.34 % dose/g; Distribution of radioactivity [22]: 0.59 % dose/g; Distribution of radioactivity [23]: 0.22 % dose/g; Lipid-soluble radioactivity [24]: 0; Distribution of radioactivity [25]: 2.5 % dose/organ; Distribution of radioactivity [26]: 0.29 % dose/g; Distribution of radioactivity [27]: 0.29 % dose/g; Distribution of radioactivity [28]: 0.31 % dose/g; Distribution of radioactivity [29]: 4.4 % dose/organ; Distribution of radioactivity [30]: 8.2 % dose/organ; Distribution of radioactivity [31]: 21.8 % dose/g; Distribution of radioactivity [32]: 9.6 % dose/organ; Lipid-soluble radioactivity [33]: 15.3; Distribution of radioactivity [34]: 6.53 % dose/g

— ChEMBL document CHEMBL1128242, “Polyiodinated triglyceride analogs as potential computed tomography imaging agents for the liver” (J Med Chem, 1995)
